Reference: patent publication US20200087340A1, “LIF/LIFR ANTAGONIST IN ONCOLOGY AND NONMALIGNANT DISEASES” (Evestra, Inc., priority 2018, published 2020)

Assays:
[1] = test system: human umbilical vein endothelial cells (HUVEC); assay: Matrigel in vitro HUVECs tube formation assay (angiogenesis); format: cell-based; details: 1 μM concentration, all measured time points
Experimental: Matrigel in vitro HUVECs tube formation assay: The tube formation assay was performed using 12-well plate coated with 100 μL Matrigel basement membrane matrix (BD Bioscience) per well and polymerized at 37° C. for 30 min. Human umbilical vascular endothelial cells (HUVECs) suspended in M199 medium containing 2% FBS were plated on the Matrigel at a density of 2×10^5 cells/well. […] After 8 h, the Matrigel-induced morphological changes were photographed and the extent of capillary tube formation was evaluated by measuring the total tube length per field.

[2] = test system: MCF-7 cells; assay: P53 / MDM2 levels in MCF-7 cells; format: cell-based, human
[3] = test system: Patient derived tumor (melanoma); assay: Immunohistochemistry analysis of treated patient derived tumor; format: cell-based, human; details: 10 nM and 1 uM for 5 days
Experimental: Patient derived tumor (melanoma) was treated with the compounds at 10 nM and 1 uM for 5 days in RPMI medium and harvested on day 6 using established protocol and immunohistochemistry was performed for different antibodies including p53, LIF, MDM2, pSTAT3, Ki67.

[4] = test system: T47D cells; assay: Soft agar colony formation assay; format: cell-based, human; details: 100 nM concentration
Experimental: Colonies of cancer cells formed in soft agar in the presence and absence of the testing compounds is a standard assay to interpret in-vitro tumorigenic potential in the basal layer. Agar was prepared by mixing 1% DNA grade agar melted and cooled to 40° C. with an equal volume of (2×) Dulbecco's Modified Eagle's Medium (DMEM) to obtain 0.5% agar that was dispersed in a 6-well plate and allowed to solidify. A total of 0.6% agar was prepared in RPMI medium and mixed together with T47D cells (0.5×10^6 cells/mL) and immediately plated on the basal layer in the presence or absence of testing compounds. The cultures were incubated at 37° C. in a CO2 incubator for 2 weeks, and colonies were stained with 0.005% crystal violet and observed under a light microscope.

[5] = test system: human endometrial stromal cells (HESC); assay: Decidualization assay, phalloidin staining of actin cytoskeleton; format: cell-based
Experimental: Decidualization studies: The above compounds were investigated originally for the treatment of endometriosis. The compounds were tested in a decidualization assay using human endometrial stromal fibroblast (HESC) cells. In preparation for the possibility of embryonic attachment, the stromal cells in the endometrium undergo extensive waves of proliferation, remodeling, and terminal differentiation that transforms the endometrium into an endocrine gland, called decidua. This transformation is called decidualization and it is under the control by ovarian hormones.
The level of apoptosis increases from the proliferative phase through menstrual cycle and peaks at menses. […] However if the cells are subjected to conditions that induce decidualization, stromal cells will begin to differentiate instead of undergoing apoptosis.
Rationale of this assay is described above in mechanism of action studies section. Briefly, human stromal endometrial cells were plated in the presence and absence of progesterone and allow undergoing decidualization. The cells treated with test compounds of different concentrations and stained for actin cytocketal morphology using phalloidin staining and monitored under fluorescent microscope.

[6] = test system: various cancer cells lines; assay: Cytotoxicity assays in various cancer cell lines; format: cell-based
[7] = test system: LIF-overexpressing MCF-7 (MCF-7 LIF) human breast cancer cells; assay: LIF specificity assay, cytotoxicity; format: cell-based
[8] = test system: U251 (Glioma); assay: Short term (72 h) cytotoxicity assay; format: cell-based; details: Homo sapiens, U-251; U251, 72 h
[9] = test system: unmodified MCF-7 human breast cancer cells; assay: LIF specificity assay, cytotoxicity; format: cell-based; details: MCF7
[10] = test system: A549 (Lung cancer); assay: Short term (72 h) cytotoxicity assay; format: cell-based; details: Homo sapiens, A549, 72 h
[11] = test system: U87-MU (Glioma cells); assay: Short term (72 h) cytotoxicity assay; format: cell-based; details: Glioma cell

Row | Compound | tube formation [1] | P53 levels / MDM2 [2] | apoptosis, p53, MDM2, LIF mediated STAT3 phosphorylation (immunohistochemistry) [3] | colonies formed [4] | actin cytoskeletal disruption (phalloidin staining) [5] | cytotoxicity (IC50's) in cytotoxicity assays [6] | IC50 ([7]; Homo sapiens, MCF7, LIF-overexpressing MCF-7) | Fold Change ([7]; cytotoxicity MCF-7 vs. MCF-7 LIF (specificity towards LIF)) | IC50 [8] | IC50 [9] | IC50 [10] | IC50 [11]
1 | C#CC(F)(F)[C@]1(O)CCC2C3CCC4=CC(=O)CCC4=C3C(c3ccc(C(C)=O)cc3)C[C@@]21C (stereo partly drawn) [EC332, 17α-(1,1-difluoro-2-propyn-1-yl)-17β-hydroxy-11β-[4-p-(acetyl)phenyl]estra-4,9-dien-3-one] | complete abrogation of tube formation | restore P53 levels by inhibiting MDM2 | induce apoptosis and restore p53 by inhibiting MDM2 and LIF mediated STAT3 phosphorylation | complete inhibition or no colonies were formed | cytoskeletal disruption | low nanomolar | – | – | – | – | – | –
2 | C#CC(F)(F)[C@]1(O)CCC2C3CCC4=CC(=O)CCC4=C3C(c3ccc(N(C)C)cc3)C[C@@]21C (stereo partly drawn) [EC352, 17α-(1,1-difluoro-2-propyn-1-yl)-17β-hydroxy-11β-[4-p-(dimethylamino)phenyl]estra-4,9-dien-3-one] | – | – | – | – | – | – | > 10 µM | 0 | 0.04 µM | > 10 µM | 0.045 µM | 0.05 µM
